The numbers were not newly measured in patent publication US20140303128A1, “TRANSMUCOSAL HORMONE DELIVERY SYSTEM” (priority 2013, published 2014), which cites them from elsewhere.

For data set [1] the following is noted: pH 6.8.
The conditions of data set [2]: smoking a cigarette (WO 03/055486 A1).

For the compound `CN1CCCC1c1cccnc1` (centres unmarked) [nicotine], in data set [1], the “nicotine in the free base form” value is on record as “about 10%”. Besides, the “time to peak of plasma nicotine levels” value in data set [2] is given as “about 10 minutes”.
